# Test results taken from US20090325891A1, “Cartilage regeneration-promoting agent” (EISAI FOOD & CHEMICAL CO., LTD., priority 2006, published 2009).
# Where “and” joins values, the source holds several entries; their conditions need not be identical. Identical values can stand only once. Entries after “also recorded” stand apart in the source; their conditions may differ.
# Assays:
# [1] = system: articular cartilage injury of the knee in rabbits; assay: Macroscopic degree of healing in rabbit articular cartilage injury model; type: in vivo; settings: for Degree of healing Distal trochlear sulcus / Degree of healing Medial trochlear ridge / Degree of healing Proximal trochlear sulcus: individual rabbits, 3 weeks after operation; for average value of quantified data (degree of healing, points): − = 0 to +++ = 3 points
# Procedure: The cartilage regeneration-promoting effect of hydroxytyrosol obtained in Production Example 1 was investigated using a rabbit articular cartilage injury model prepared experimentally.
# Six female and six male rabbits (New Zealand white, 16 weeks old when introduced, body weight: from 2.00 kg to 2.55 kg) were habituated for one week under the conditions of one rabbit per cage, temperature: from 23° C. to 25° C., relative humidity: from 50% to 60%, a light/dark cycle of 12 h, 12 times air changes per hour). During this period, animals were fed with feed, which is sold commercially, and sterile tap water ad libitum.
# After the period, rabbits were divided at random into two groups so that each group contains three female and three male rabbits. One group was designated as a control group and the other as a hydroxytyrosol administration group (hereinafter, HT group).
# (§1) The rabbit articular cartilage injury model was prepared based on the method of Hashida et. al. (See, Macromolecular Bioscience, 3, (2003) 596-603), and Tamai et. al. (See, Carbohydrate Polymers, 48, (2002) 369-378, and Carbohydrate Polymers, 54, (2003) 251-262).
# (§2) Initially, each animal was anesthetized by injecting pentobarbital sodium (40 mg/kg) intraperitoneally. Next, hairs at the knee joint of the left hind limb of the animal were clipped and disinfected with 0.5% chlorhexidine gluconate solution and 70% ethanol solution. Then, an incision was made on the skin on the lateral portion of the knee joint from the central part of the femur toward the tibial tuberosity. The articular capsule was exposed and incised. Further, the knee joint was exposed completely by dislocating the patella toward the medial side. Three holes of 2 mm size in diameter and 4 mm in depth were made by using a handdrill one at the medial trochlear ridge and two at the trochlear sulcus of the femur. The incised portion was washed with sterile saline solution and the articular capsule, and at the same time, the subcutaneous tissues and the skin were sutured with a synthetic absorbent thread and with nylon thread, respectively. During one week after the operation, the sutured portion of the skin was disinfected by povidone-iodine once a day and 10 mg/kg of oxytetracycline hydrochloride was subcutaneously administered twice a day.
# (§3) After the formation of injury to articular cartilage, for the HT group, the product containing 20% by mass of hydroxytyrosol obtained in Production Example 1 was dissolved in tap water and administered using a water bottle at a rate of 500 mg/kg (100 mg/kg of hydroxytyrosol) per day for 21 days. After making sure that all of the water containing the drug was taken in, rabbits were fed with sterile tap water. The control was fed with sterile tap water ad libitum.
# After the experimental period, all animals were euthanized by overdose using an intravenous injection of pentobarbital sodium (80 mg/kg). Then, knee joints were incised, and the conditions of joint cartilages were macroscopically observed. The degree, to which the injury of cartilage was healed, was evaluated based on the following standards.
# • −: Degree of healing is less than 50% • +: Degree of healing is from 50% to 60% • ++: Degree of healing is from 60% to 80% • +++: Degree of healing is from 80% to 100%
# Further, the above evaluation was assigned numbers: (−) was assigned with 0 point (+) was assigned with 1 point, (++) was assigned with 2 points, and (+++) was assigned with 3 points. The degree of healing of articular cartilage was expressed numerically, and Mann-Whitney's U test was performed between the control group and the HT group.
# (§4) In the same way as in Example 1, the cartilage regeneration-promoting effects were investigated with respect to hydroxytyrosol (100 mg/kg per day, HT group) and with respect to glucosamine hydrochloride (800 mg/kg per day, hereinafter, GAH group) for comparison. The control group was set in the same way as in Example 1.
# [2] = system: lateral vastus muscles and femoral biceps muscles; assay: Muscle weight ratio (injured side vs opposite side) in rabbit articular cartilage injury model; type: in vivo; settings: for Muscle weight ratio Femoral biceps muscle, Mean / Muscle weight ratio Lateral vastus muscle, Mean: group mean, 6 rabbits; for Muscle weight ratio Femoral biceps muscle / Muscle weight ratio Lateral vastus muscle: individual rabbits, injured side vs opposite side
# Procedure: as §1, §2, §3
# For each animal, left and right lateral vastus muscles and femoral biceps muscles were collected, and weights were measured. The muscle weight ratio was calculated by comparing the side, in which cartilage injury was made, with the opposite side, and Student's t-test was performed between the control group and the HT group.
# as §4
# [3] = system: articular cartilage injury of the knee in rabbits; assay: Histopathological examination (hematoxylin/eosin) of injured knee articular cartilage; type: in vivo, rabbit; settings: hematoxylin/eosin staining
# Procedure: as §1, §2, §3
# For each animal, femur was collected and fixed by a 10% neutral buffered forrnalin solution. […]
# proteoglycan = assay: Image analysis of Safranin O staining (proteoglycan) of knee articular cartilage; type: in vivo, rabbit
# Procedure: as §1, §2, §3
# The specimens stained with Safranin O and with Alcian blue were prepared in the same way as mentioned above and subjected to image analysis. The 200 times magnified images of specimens were scanned into the computer using a digital camera (Olympus DP70, manufactured by Olympus Corporation). Then, two locations (20,000 pixels) were randomly sampled, and the density of the site stained in a specific color (site stained with Safranin O:
# corresponding to proteoglycan, site stained with Alcian blue: corresponding to glycosaminoglycan) was measured. For the obtained values, Student's t-test was performed between the control group and the HT group.
# as §4
# [4] = Observation of general conditions and body weight; type: in vivo, rabbit
# Procedure: as §3
# During the experimental period, diarrhea, appetite, and hair gloss or coat color of each rabbit were observed. In addition, body weight was measured per week.
# as §4
# [5] = Example 2, HT 100 mg/kg per day, GAH 800 mg/kg per day, hydrochloride, female rabbits
# [6] = Example 2, HT 100 mg/kg per day, GAH 800 mg/kg per day, hydrochloride, male rabbits
# [7] = Example 2, hydrochloride, female rabbits
# [8] = Example 2, hydrochloride, male rabbits
# [9] = Example 2, injured site of cartilage
# [10] = Example 1, 100 mg/kg of hydroxytyrosol per day for 21 days, 100 mg/kg
# [11] = Example 2, HT 100 mg/kg per day, GAH 800 mg/kg per day, female rabbits
# [12] = Example 2, HT 100 mg/kg per day, GAH 800 mg/kg per day, male rabbits
smiles,measurement,setting,value
"Cl.N[C@H]1C(O)O[C@H](CO)[C@@H](O)[C@@H]1O (some centres unmarked) [GAH group, glucosamine hydrochloride, reference compound]",cartilage healing / regeneration compared with the control group,"[1]; Example 2, HT p<0.01, GAH p<0.05, hydrochloride",promoted significantly
same,cartilage healing / regeneration compared with the control group,"[1]; Example 2, HT p<0.01, GAH p<0.05, listed as glucosamine hydrochloride, hydrochloride",promoted the regeneration of cartilage
same,Degree of healing Distal trochlear sulcus,[1]; [5],++ (Degree of healing is from 60% to 80%); also recorded: +++ (Degree of healing is from 80% to 100%)
same,Degree of healing Medial trochlear ridge,[1]; [5],+++ (Degree of healing is from 80% to 100%)
same,Degree of healing Proximal trochlear sulcus,[1]; [5],++ (Degree of healing is from 60% to 80%); also recorded: +++ (Degree of healing is from 80% to 100%)
same,Degree of healing Distal trochlear sulcus,[1]; [6],++ (Degree of healing is from 60% to 80%); also recorded: + (Degree of healing is from 50% to 60%)
same,Degree of healing Medial trochlear ridge,[1]; [6],+++ (Degree of healing is from 80% to 100%); also recorded: ++ (Degree of healing is from 60% to 80%)
same,Degree of healing Proximal trochlear sulcus,[1]; [6],+ (Degree of healing is from 50% to 60%); also recorded: +++ (Degree of healing is from 80% to 100%)
same,"average value of quantified data (degree of healing, points)","[1]; Example 2, control group 5.33",7.17
same,muscle weight of the femoral biceps muscle (in words),[2]; Example 2,marked decrease
same,muscle weight of the lateral vastus muscle (in words),[2]; Example 2,slight decrease
same,"Muscle weight ratio Femoral biceps muscle, Mean","[2]; Example 2, control 83.80",83.62%
same,"Muscle weight ratio Lateral vastus muscle, Mean","[2]; Example 2, control 91.91",92.03%
same,Muscle weight ratio Femoral biceps muscle,[2]; [7],78.13% and 86.21% and 65.10%
same,Muscle weight ratio Lateral vastus muscle,[2]; [7],82.24% and 96.46% and 90.85%
same,Muscle weight ratio Femoral biceps muscle,[2]; [8],92.37% and 86.12% and 93.81%
same,Muscle weight ratio Lateral vastus muscle,[2]; [8],98.02% and 89.59% and 94.99%
same,histopathological findings at the site at which injury was created,[3]; Example 2,almost the same findings as those of the HT group
same,"density at the site stained with Safranin O (proteoglycan), injured site of cartilage, vs control",proteoglycan; [9],significant increase
same,"density at the site stained with Safranin O, normal site and growth zone of cartilage, vs control",proteoglycan; Example 2,no difference
same,Body weight changes vs control group,[4]; Example 2,almost the same as that of the control group
same,general conditions,"[4]; Example 2, HT 100 mg/kg per day, GAH 800 mg/kg per day",change in general conditions was not observed
"OCCc1ccc(O)c(O)c1 [HT group, 2-(3,4-Dihydroxyphenyl)ethanol]",cartilage healing / regeneration compared with the control group,"[1]; Example 1, Mann-Whitney's U test, p<0.05",promoted significantly
same,cartilage healing / regeneration compared with the control group,"[1]; Example 1, Mann-Whitney's U test, p<0.05, listed as hydroxytyrosol",promoted the regeneration of cartilage
same,Degree of healing Distal trochlear sulcus,[1]; [10],+++ (Degree of healing is from 80% to 100%); also recorded: + (Degree of healing is from 50% to 60%); also recorded: ++ (Degree of healing is from 60% to 80%)
same,Degree of healing Proximal trochlear sulcus,[1]; [10],++ (Degree of healing is from 60% to 80%); also recorded: +++ (Degree of healing is from 80% to 100%); also recorded: + (Degree of healing is from 50% to 60%)
same,Degree of healing Medial trochlear ridge,"[1]; Example 1, 100 mg/kg of hydroxytyrosol per day in drinking water for 21 days, 100 mg/kg",+++ (Degree of healing is from 80% to 100%); also recorded: ++ (Degree of healing is from 60% to 80%); also recorded: + (Degree of healing is from 50% to 60%)
same,"average value of quantified data (degree of healing, points)","[1]; Example 1, control group 4.83",7.17
same,cartilage healing / regeneration compared with the control group,"[1]; Example 2, HT p<0.01, GAH p<0.05",promoted significantly
same,cartilage healing / regeneration compared with the control group,"[1]; Example 2, HT p<0.01, GAH p<0.05, listed as hydroxytyrosol",promoted the regeneration of cartilage
same,Degree of healing Distal trochlear sulcus,[1]; [11],+++ (Degree of healing is from 80% to 100%)
same,Degree of healing Medial trochlear ridge,[1]; [11],+++ (Degree of healing is from 80% to 100%)
same,Degree of healing Proximal trochlear sulcus,[1]; [11],+++ (Degree of healing is from 80% to 100%); also recorded: ++ (Degree of healing is from 60% to 80%)
same,Degree of healing Distal trochlear sulcus,[1]; [12],+++ (Degree of healing is from 80% to 100%)
same,Degree of healing Medial trochlear ridge,[1]; [12],++ (Degree of healing is from 60% to 80%); also recorded: +++ (Degree of healing is from 80% to 100%)
same,Degree of healing Proximal trochlear sulcus,[1]; [12],++ (Degree of healing is from 60% to 80%); also recorded: +++ (Degree of healing is from 80% to 100%)
same,"average value of quantified data (degree of healing, points)","[1]; Example 2, control group 5.33",8.17
same,muscle weight of the femoral biceps muscle (in words),[2]; Example 1,little decrease
same,muscle weight of the lateral vastus muscle (in words),[2]; Example 1,decreased slightly
same,"Muscle weight ratio Lateral vastus muscle, Mean","[2]; Example 1, control 88.84",95.93%
same,"Muscle weight ratio Femoral biceps muscle, Mean","[2]; Example 1, control 88.99",100.08%
same,Muscle weight ratio Femoral biceps muscle,"[2]; Example 1, female rabbits",100.18% and 98.45% and 93.46%
same,Muscle weight ratio Lateral vastus muscle,"[2]; Example 1, female rabbits",105.30% and 96.92% and 80.89%
same,Muscle weight ratio Femoral biceps muscle,"[2]; Example 1, male rabbits",94.80% and 106.36% and 107.22%
same,Muscle weight ratio Lateral vastus muscle,"[2]; Example 1, male rabbits",93.29% and 95.10% and 104.10%
same,muscle weight of the femoral biceps muscle (in words),[2]; Example 2,little decrease
same,muscle weight of the lateral vastus muscle (in words),[2]; Example 2,little decrease
same,"Muscle weight ratio Femoral biceps muscle, Mean","[2]; Example 2, control 83.80",100.59%
same,"Muscle weight ratio Lateral vastus muscle, Mean","[2]; Example 2, control 91.91",98.48%
same,Muscle weight ratio Femoral biceps muscle,"[2]; Example 2, female rabbits",90.91% and 111.86% and 93.42%
same,Muscle weight ratio Lateral vastus muscle,"[2]; Example 2, female rabbits",94.98% and 98.56% and 92.43%
same,Muscle weight ratio Femoral biceps muscle,"[2]; Example 2, male rabbits",101.37% and 104.66% and 101.31%
same,Muscle weight ratio Lateral vastus muscle,"[2]; Example 2, male rabbits",84.93% and 111.10% and 108.90%
same,histopathological findings at the site at which injury was created,[3]; Example 1,matured chondrocytes were found extensively
same,histopathological findings at the site at which injury was created,[3]; Example 2,matured chondrocytes were found extensively
same,"density at the site stained with Safranin O, normal site and growth zone of cartilage, vs control",proteoglycan; Example 1,no difference
same,"density at the site stained with Safranin O (proteoglycan), injured site of cartilage, vs control","proteoglycan; Example 1, site of cartilage at which injury was created",significant increase
same,"density at the site stained with Safranin O (proteoglycan), injured site of cartilage, vs control",proteoglycan; [9],significant increase
same,"density at the site stained with Safranin O, normal site and growth zone of cartilage, vs control",proteoglycan; Example 2,no difference
same,Body weight changes vs control group,"[4]; rabbit, in vivo",almost the same as that of the control group
same,body weight change during test period vs control group,"[4]; rabbit, in vivo",significant difference was not observed
same,"general conditions (diarrhea, appetite, hair gloss or coat color)","[4]; rabbit, in vivo, 100 mg/kg",marked change was not observed
